Assay results as given in patent publication US20040009464A1, “Methods for identifying compounds for inhibition of neoplastic lesions, and pharmacetical compositions containing such compounds” (priority 1998, published 2004).
Where two headings read alike, the source gives them in different places. Each block holds one compound with its values, some of them ahead of it.

Columns and labels:
[1] = target: T1, cGMP binding sites of GST-cGB-PDE5 fusion protein (Homo sapiens, UniProt O76074); assay: cGMP binding assay with GST-cGB-PDE5 fusion protein
T1 construct: made in house; host or cells: E. coli BL21 (DE3)

[2] = target: T2, purified cyclooxygenase (Type 1) from ram seminal vesicles (Ovis aries, UniProt P05979); assay: COX inhibition assay with purified cyclooxygenase; design: COX Inhibition: key to the marks not given beside the values; conditions: for COX-I inhibition: FIG. 5
T2 sequence (P05979 25-600): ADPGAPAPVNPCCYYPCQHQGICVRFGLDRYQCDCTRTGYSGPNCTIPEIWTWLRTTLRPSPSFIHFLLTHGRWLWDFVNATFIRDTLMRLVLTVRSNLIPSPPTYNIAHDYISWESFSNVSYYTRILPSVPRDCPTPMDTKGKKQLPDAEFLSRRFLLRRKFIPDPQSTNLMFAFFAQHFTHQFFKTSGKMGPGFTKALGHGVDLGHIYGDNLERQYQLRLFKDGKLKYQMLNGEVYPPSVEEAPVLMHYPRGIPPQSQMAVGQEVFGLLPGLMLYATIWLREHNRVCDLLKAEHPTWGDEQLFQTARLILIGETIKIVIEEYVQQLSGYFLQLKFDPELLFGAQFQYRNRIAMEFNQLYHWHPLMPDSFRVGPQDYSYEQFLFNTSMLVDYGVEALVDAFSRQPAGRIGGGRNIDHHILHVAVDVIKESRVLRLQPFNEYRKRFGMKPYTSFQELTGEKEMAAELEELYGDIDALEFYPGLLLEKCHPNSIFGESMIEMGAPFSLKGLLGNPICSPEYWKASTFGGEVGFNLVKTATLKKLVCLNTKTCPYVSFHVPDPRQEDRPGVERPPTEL

[3] = test system: SW-480 colon adenocarcinoma cells; assay: Apoptosis fold induction protocol (DNA fragmentation ELISA); type: cell-based, human; design: key to the marks not given beside the values; conditions: qualitative activity profile
[4] = test system: novel cGMP-specific PDE peak B from SW480; assay: cGMP hydrolysis by novel cGMP-specific PDE peak B (Section IA) from SW480 cells; type: biochemical, human; conditions: for Ratio (IC50 Peak A/Peak B): cGMP hydrolysis
[5] = target: T3, PDE peak A (PDE5) from SW480 (Homo sapiens, UniProt O76074); assay: cGMP hydrolysis by PDE peak A (PDE5) isolated from SW480 cells; type: biochemical
T3 construct: The novel PDE activity was first found in SW480 colon cancer cell lines; endogenous in cells; host or cells: SW480 colon cancer cells; DEAE-Trisacryl M fraction (peak A)

[6] = test system: HT-29 cells; assay: Cyclic nucleotide (cGMP, cAMP) levels in HT-29 cells by radioimmunoassay; type: cell-based, human; conditions: for effect on cAMP levels: HT-29 cells
[7] = test system: HCT116, Colon; assay: Growth inhibition, SRB assay, HCT116; type: cell-based; conditions: Homo sapiens, HCT-116
Excerpt: (§1) A compound's ability to inhibit tumor cell growth can be measured using the HT-29 human colon carcinoma cell line obtained from ATCC. HT-29 cells have previously been characterized as a relevant colon tumor cell culture model (Fogh, J., and Trempe, G. In. Human Tumor Cells in Vitro, J. Fogh (eds.), Plenum Press, New York, pp. 115-159, 1975). HT-29 cells are maintained in RPMI media supplemented with 5% fetal bovine calf serum (Gemini Bioproducts, Inc., Carlsbad, Calif.) and 2 mm glutamine, and 1% antibiotic-antimycotic in a humidified atmosphere of 95% air and 5% CO2 at 37° C. Briefly, HT-29 cells are plated at a density of 500 cells/well in 96 well microtiter plates and incubated for 24 hours at 37° C. prior to the addition of compound. […] After six days in culture, the cells are fixed by the addition of cold trichloroacetic acid to a final concentration of 10% and protein levels are measured using the sulforhodamine B (SRB) colorimetric protein stain assay as previously described by Skehan, P., Storeng, R., Scudiero, D., Monks, A., McMahon, J., Vistica, D., Warren, J. T., Bokesch, H., Kenney, S., and Boyd, M. R., “New Colorimetric Assay For Anticancer-Drug Screening,” J. Natl Cancer Inst. […]
(§2) To show the effectiveness of this screening method on various forms of neoplasia, compounds were tested on numerous cell lines. […] The IC50 values were determined by the SRB assay. […]

[8] = test system: PDE4 purified from human colon HT-29 cultured tumor cells; assay: PDE4 inhibition assay; type: biochemical; conditions: PDE4 from HT-29 cells
Procedure: (Thompson, W. J., Teraski, W. L., Epstein, P. M., Strada, S. J., Advances in Cyclic Nucleotide Research, 10:69-92, 1979, which is incorporated herein by reference). […] The mixture is incubated at 30° C. for 10 minutes with isolated PDE of this invention. Reactions are terminated, for example, by boiling the reaction mixture for 75 seconds. After cooling on ice, 100 μl of 0.5 mg/mL snake venom (O. Hannah venom available from Sigma) is added and incubated for 10 minutes at 30° C. This reaction is then terminated by the addition of an alcohol, e.g. 1 mL of 100% methanol. Assay samples are applied to 1 mL Dowex 1-X8 column; and washed with 1 mL of 100% methanol. The amount of radioactivity in the breakthrough and the wash from the column is combined and measured with a scintillation counter. The degree of phosphodiesterase inhibition is determined by calculating the amount of radioactivity in drug-treated reactions and comparing against a control sample (a reaction mixture lacking the tested compound but with drug solvent).

[9] = test system: cGMP PDE purified from human colon HT-29 cultured tumor cells; assay: cGMP PDE inhibition assay; type: biochemical; design: PDE Inhibition: key to the marks not given beside the values
[10] = test system: premalignant lesions in mouse mammary gland organ culture; assay: Mammary gland organ culture model; type: cell-based; conditions: FIG. 17
Excerpt: Test compounds identified by the above methods can be tested for antineoplastic activity by their ability to inhibit the incidence of pre-neoplastic lesions in a mammary gland organ culture system. This mouse mammary gland organ culture technique has been successfully used by other investigators to study the effects of known antineoplastic agents such as certain NSAIDs, retinoids, tamoxifen, selenium, and certain natural products, and is useful for validation of the screening method of the present invention.
For example, female BALB/c mice can be treated with a combination of estradiol and progesterone daily, in order to prime the glands to be responsive to hormones in vitro. The animals are sacrificed, and thoracic mammary glands are excised aseptically and incubated for ten days in growth media supplemented with insulin, prolactin, hydrocortisone, and aldosterone. DMBA (7,12-dimethylbenz(a)anthracene) is added to medium to induce the formation of premalignant lesions Fully developed glands are then deprived of prolactin, hydrocortisone, and aldosterone, resulting in the regression of the glands but not the pre-malignant lesions.
The test compound is dissolved in DMSO and added to the culture media for the duration of the culture period. At the end of the culture period, the glands are fixed in 10% formalin, stained with alum camine, and mounted on glass slides. The incidence of forming mammary lesions is the ratio of the glands with mammary lesions to […]. The incidence of mammary lesions in test compound treated glands is compared with that of the untreated glands.
The extent of the area occupied by the mammary lesions can be quantitated by projecting an image of the gland onto a digitation pad. The area covered by the gland is traced on the pad and considered as 100% of the area. The space covered by each of the non-regressed structures is also outlined on the digitization pad and quantitated by the computer.
Mammary gland organ culture experiment were performed as previously described (Mehta and Moon, Cancer Research, 46: 5832-5835, 1986). […]

[11] = test system: A-427, Lung; assay: Growth inhibition, SRB assay, A-427; type: cell-based; conditions: Homo sapiens
Excerpt: as §1, §2

Structure (SMILES): CCCCOC1C2OP(=O)(O)OCC2OC1n1cnc2c(N)ncnc21 (centres unmarked) [2′-O-butyl-cAMP]
competition with cGMP (2 μM) in binding of GST-cGB-PDE5 ([1]; FIG. 24): did not compete

Structure (SMILES): COc1cc(C=C2C(C)=C(CC(=O)O)c3cc(F)ccc32)cc(OC)c1OC [Compound B, (Z)-5-Fluoro-2-methyl-1-(3,4,5-trimethoxybenzylidene)-3-acetic acid]
COX-I inhibition [2]: neither test compound B and E significantly inhibit COX-I
competition with cGMP (2 μM) in binding of GST-cGB-PDE5 ([1]; FIG. 24): None of the PDE5 inhibitors showed any competition
Apoptosis [3]: +++

Structure (SMILES): O=C([O-])C1CCN(c2nc(NCc3ccc4c(c3)OCO4)c3cc(Cl)ccc3n2)CC1.[Na+] [Compound E4021]
competition with cGMP (2 μM) in binding of GST-cGB-PDE5 ([1]; FIG. 24): None of the PDE5 inhibitors showed any competition

Structure (SMILES): Nc1ncnc2c1ncn2[C@@H]1O[C@@H]2COP(=O)(O)O[C@H]2[C@H]1O [Cyclic AMP]
competition with cGMP (2 μM) in binding of GST-cGB-PDE5 [1]: did not compete

Structure (SMILES): COc1ccc(C2CNC(=O)C2)cc1OC1CCCC1 (centres unmarked) [Rolipram]
effect on cAMP levels [6]: increased cAMP

Structure (SMILES): CCCc1nn(C)c2c(=O)[nH]c(-c3cc(S(=O)(=O)N4CCN(C)CC4)ccc3OCC)nc12 [Sildenafil]
inhibition of activity of peak A [5]: inhibited activity of peak A

Structure (SMILES): CCCOc1ccccc1-c1nc2nn[nH]c2c(=O)[nH]1 [Zaprinast]
competition with cGMP (2 μM) in binding of GST-cGB-PDE5 ([1]; FIG. 24): None of the PDE5 inhibitors showed any competition

Structure (SMILES): Nc1ccn([C@@H]2O[C@@H]3COP(=O)(O)O[C@H]3[C@H]2O)c(=O)n1 [cCMP]
competition with cGMP (2 μM) in binding of GST-cGB-PDE5 ([1]; FIG. 24): did not compete

Structure (SMILES): O=c1ccn([C@@H]2O[C@@H]3COP(=O)(O)O[C@H]3[C@H]2O)c(=O)[nH]1 [cUMP]
competition with cGMP (2 μM) in binding of GST-cGB-PDE5 ([1]; FIG. 24): did not compete

Structure (SMILES): CC1=C(CC(=O)O)c2cc(F)ccc2/C1=C\c1ccc([S+](C)[O-])cc1 (centres unmarked) [sulindac]
inhibition of premalignant lesions in mammary gland organ culture [10]: effectively inhibit the formation of premalignant lesions

Second part, led by results:

competition with cGMP (2 μM) in binding of GST-cGB-PDE5 ([1]; FIG. 24): did not compete
Structure (SMILES): CCCCOC1C2OP(=O)(O)OCC2OC1n1cnc2c(=O)[nH]c(N)nc21 (centres unmarked) [2′-O-butyl-cGMP]

competition with cGMP (2 μM) in binding of GST-cGB-PDE5 ([1]; FIG. 24): can partially compete
Structure (SMILES): Nc1nc2c(nc(Br)n2[C@@H]2O[C@@H]3COP(=O)(O)O[C@H]3[C@H]2O)c(=O)[nH]1 [Compound 8-bromo-cGMP, 8-bromo-cGMP]

Ratio (IC50 Peak A/Peak B) [4]: 1.0
Structure (SMILES): COc1cc(/C=C2/C(C)=C(CC(=O)NCc3ccccc3)c3cc(F)ccc32)cc(OC)c1OC [Compound E, (Z)-5-Fluoro-2-methyl-1-(3,4,5-trimethoxybenzylidene)-3-indenylacetamide, N-benzyl]
competitive (with cGMP) binding to PDE peak B [4]: competitively (with cGMP) binds to PDE peak B
COX-I inhibition [2]: neither test compound B and E significantly inhibit COX-I
competition with cGMP (2 μM) in binding of GST-cGB-PDE5 ([1]; FIG. 24): None of the PDE5 inhibitors showed any competition
competitive (with cGMP) binding to PDE5 peak A [5]: does competitively (with cGMP) bind to PDE 5
Apoptosis [3]: ++++

competition with cGMP (2 μM) in binding of GST-cGB-PDE5 ([1]; FIG. 24): can partially compete
Structure (SMILES): O=c1[nH]cnc2c1ncn2[C@@H]1O[C@@H]2COP(=O)(O)O[C@H]2[C@H]1O [Cyclic IMP]

Ratio (IC50 Peak A/Peak B) [4]: <0.31
Structure (SMILES): CC1(C)C(=O)Nc2ccc(C3=NNC(=O)CC3)cc21 [Indolidan]

IC50 [7]: 45 µM
IC50 [8]: 41 µM
IC50 ([9]; read-out: IC50 for inhibition of cGMP PDE, cGMP PDE from HT-29 cells): 17 µM
COX Inhibition ([2]; qualitative activity profile): ++++
inhibition at 100 µM ([2]; read-out: Cyclooxygenase inhibitory activity, % Inhibition at 100 μM): 97%
EC50 ([6]; Homo sapiens, 0.5 h, read-out: EC50 for increase of cGMP levels, HT-29 cells treated 30 minutes): 7.3 µM
Structure (SMILES): CSc1ccc(/C=C2/C(C)=C(CC(=O)O)c3cc(F)ccc32)cc1 [Sulindac sulfide]
cGMP PDE inhibitory activity, % Inhibition at 10 μM ([9]; 10 μM): 97%
PDE Inhibition ([9]; qualitative activity profile): +++
competition with cGMP (2 μM) in binding of GST-cGB-PDE5 ([1]; FIG. 24): None of the PDE5 inhibitors showed any competition
inhibition of premalignant lesions in mammary gland organ culture [10]: inactive
IC50 [11]: 90 µM
Apoptosis [3]: +++
effect on cAMP levels [6]: unaffected
